Experimental data as given in ChEMBL document CHEMBL1201861, “Genomics of Drug Sensitity in Cancer screening data, Wellcome Trust Sanger Institute”.

Assays:
Assay in all cases: cells
LU-134-A = assay type: functional, cell-based, Homo sapiens; conditions: Homo sapiens, LU-134-A
Description: SANGER: Inhibition of human LU-134-A cell growth in a cell viability assay.

KNS-42 = assay type: functional, cell-based; conditions: Homo sapiens;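 note: growth inhibition of KNS-42 cells, read out with a cell viability assay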
Description: SANGER: Inhibition of human KNS-42 cell growth in a cell viability assay.

SF-126 = assay type: functional, cell-based, Homo sapiens; conditions: Homo sapiens, SF-126;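 note: growth inhibition of human SF126 cells, read out with a cell viability assay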
Description: SANGER: Inhibition of human SF126 cell growth in a cell viability assay.

SNB-75 = assay type: functional, cell-based, Homo sapiens; conditions: Homo sapiens, SNB-75;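 note: cell viability assay measuring growth inhibition of human SNB-75 cells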
Description: SANGER: Inhibition of human SNB75 cell growth in a cell viability assay.

SF-539 = assay type: functional, cell-based, Homo sapiens; conditions: Homo sapiens, SF-539;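 note: Read-out is a cell viability assay, with IC50 reflecting inhibition of cell growth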
Description: SANGER: Inhibition of human SF539 cell growth in a cell viability assay.

MZ7-mel = assay type: functional, cell-based, Homo sapiens; conditions: Homo sapiens, MZ7-mel;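 note: growth inhibition of human MZ7-mel cells, measured by a cell viability assay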
Description: SANGER: Inhibition of human MZ7-mel cell growth in a cell viability assay.

KARPAS-299 = assay type: functional, cell-based, Homo sapiens; conditions: Homo sapiens, KARPAS-299
Description: SANGER: Inhibition of human KARPAS-299 cell growth in a cell viability assay.

NCI-H1355 = assay type: functional, cell-based, Homo sapiens; conditions: Homo sapiens, NCI-H1355;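 note: growth inhibition of human NCI-H1355 cells, read out by a cell viability assay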
Description: SANGER: Inhibition of human NCI-H1355 cell growth in a cell viability assay.

A101D = assay type: functional, cell-based, Homo sapiens; conditions: Homo sapiens, A101D;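 note: growth inhibition of the cell line, measured with a viability assay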
Description: SANGER: Inhibition of human A101D cell growth in a cell viability assay.

LNCaP-Clone-FGC = assay type: functional, cell-based, Homo sapiens; conditions: Homo sapiens, LNCaP-Clone-FGC
Description: SANGER: Inhibition of human LNCaP-Clone-FGC cell growth in a cell viability assay.

KARPAS-45 = assay type: functional, cell-based, Homo sapiens; conditions: Homo sapiens, KARPAS-45;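 note: inhibition of cell line growth, read out through a viability assay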
Description: SANGER: Inhibition of human KARPAS-45 cell growth in a cell viability assay.

ETK-1 = assay type: functional, cell-based, Homo sapiens; conditions: Homo sapiens, ETK-1;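 note: growth inhibition of human ETK-1 cells, read out with a cell viability assay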
Description: SANGER: Inhibition of human ETK-1 cell growth in a cell viability assay.

BB65-RCC = assay type: functional, cell-based, Homo sapiens; conditions: Homo sapiens, BB65-RCC;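 note: growth inhibition of the cell line, measured with a cell viability assay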
Description: SANGER: Inhibition of human BB65-RCC cell growth in a cell viability assay.

COLO-800 = assay type: functional, cell-based, Homo sapiens; conditions: Homo sapiens, COLO-800;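 note: growth inhibition of COLO-800 cells, read out with a cell viability assay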
Description: SANGER: Inhibition of human COLO-800 cell growth in a cell viability assay.

GI-1 = assay type: functional, cell-based, Homo sapiens; conditions: Homo sapiens, GI-1;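 note: growth inhibition of human GI-1 cells, measured with a cell viability readout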
Description: SANGER: Inhibition of human GI-1 cell growth in a cell viability assay.

MLMA = assay type: functional, cell-based, Homo sapiens; conditions: Homo sapiens, MLMA;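 note: growth inhibition of MLMA cells (human), determined through a cell viability readout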
Description: SANGER: Inhibition of human MLMA cell growth in a cell viability assay.

HCC2157 = assay type: functional, cell-based, Homo sapiens; conditions: Homo sapiens, HCC2157;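 note: growth inhibition of the cancer cell line, read out as cell viability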
Description: SANGER: Inhibition of human HCC2157 cell growth in a cell viability assay.

Ramos-2G6-4C10 = assay type: functional, cell-based, Homo sapiens; conditions: Homo sapiens, Ramos-2G6-4C10;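 note: growth inhibition of the cell line, measured by a cell viability read-out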
Description: SANGER: Inhibition of human Ramos-2G6-4C10 cell growth in a cell viability assay.

TE-12 = assay type: functional, cell-based, Homo sapiens; conditions: Homo sapiens, TE-12;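 note: growth inhibition of TE-12 cells, read out by a cell viability assay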
Description: SANGER: Inhibition of human TE-12 cell growth in a cell viability assay.

SF-268 = assay type: functional, cell-based, Homo sapiens; conditions: Homo sapiens, SF-268;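 note: growth inhibition of SF-268 cells determined with a cell viability assay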
Description: SANGER: Inhibition of human SF268 cell growth in a cell viability assay.

NTERA-2-cl-D1 = assay type: functional, cell-based, Homo sapiens; conditions: Homo sapiens, NTERA-2-cl-D1;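 note: inhibition of cell growth, measured with a cell viability assay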
Description: SANGER: Inhibition of human NTERA-S-cl-D1 cell growth in a cell viability assay.

HOP-62 = assay type: functional, cell-based, Homo sapiens; conditions: Homo sapiens, HOP-62;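 note: cell growth inhibition determined with a viability assay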
Description: SANGER: Inhibition of human HOP-62 cell growth in a cell viability assay.

MFM-223 = assay type: functional, cell-based, Homo sapiens; conditions: Homo sapiens, MFM-223
Description: SANGER: Inhibition of human MFM-223 cell growth in a cell viability assay.

Mo = assay type: functional, cell-based, Homo sapiens; conditions: Homo sapiens, Mo
Description: SANGER: Inhibition of human Mo-T cell growth in a cell viability assay.

ES8 = assay type: functional, cell-based, Homo sapiens; conditions: Homo sapiens, ES8;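 note: growth inhibition of human ES8 cells, read out with a cell viability assay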
Description: SANGER: Inhibition of human ES8 cell growth in a cell viability assay.

HH = assay type: functional, cell-based, Homo sapiens; conditions: Homo sapiens, HH
Description: SANGER: Inhibition of human HH cell growth in a cell viability assay.

LS-123 = assay type: functional, cell-based, Homo sapiens; conditions: Homo sapiens, LS-123
Description: SANGER: Inhibition of human LS-123 cell growth in a cell viability assay.

KS-1 = assay type: functional, cell-based; conditions: Homo sapiens;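 note: growth inhibition of KS-1 cells, read out with a cell viability assay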
Description: SANGER: Inhibition of human KS-1 cell growth in a cell viability assay.

D-263MG = assay type: functional, cell-based, Homo sapiens; conditions: Homo sapiens, D-263MG
Description: SANGER: Inhibition of human D-263MG cell growth in a cell viability assay.

TGW = assay type: functional, cell-based, Homo sapiens; conditions: Homo sapiens, TGW;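 note: growth inhibition of human TGW cells, read out with a cell viability assay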
Description: SANGER: Inhibition of human TGW cell growth in a cell viability assay.

SH-4 = assay type: functional, cell-based; conditions: Homo sapiens;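 note: growth inhibition of SH-4 cells, read out with a cell viability assay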
Description: SANGER: Inhibition of human SH-4 cell growth in a cell viability assay.

CGTH-W-1 = assay type: functional, cell-based, Homo sapiens; conditions: Homo sapiens, CGTH-W-1;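 note: growth inhibition of human CGTH-W-1 cells measured by cell viability assay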
Description: SANGER: Inhibition of human CGTH-W-1 cell growth in a cell viability assay.

SK-MEL-1 = assay type: functional, cell-based, Homo sapiens; conditions: Homo sapiens, SK-MEL-1;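 note: growth inhibition of human SK-MEL-1 cells, read out by a cell viability assay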
Description: SANGER: Inhibition of human SK-MEL-1 cell growth in a cell viability assay.

8-MG-BA = assay type: functional, cell-based, Homo sapiens; conditions: Homo sapiens, 8-MG-BA;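 note: growth inhibition of 8-MG-BA cells, read out with a cell viability assay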
Description: SANGER: Inhibition of human 8-MG-BA cell growth in a cell viability assay.

LOX IMVI = assay type: functional, cell-based, Homo sapiens; conditions: Homo sapiens, LOX IMVI
Description: SANGER: Inhibition of human LOXIMVI cell growth in a cell viability assay.

MZ1-PC = assay type: functional, cell-based, Homo sapiens; conditions: Homo sapiens, MZ1-PC;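 note: cell viability assay measuring growth inhibition of human MZ1-PC cells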
Description: SANGER: Inhibition of human MZ1-PC cell growth in a cell viability assay.

RPMI-8866 = assay type: functional, cell-based, Homo sapiens; conditions: Homo sapiens, RPMI-8866
Description: SANGER: Inhibition of human RPMI-8866 cell growth in a cell viability assay.

GOTO = assay type: functional, cell-based, Homo sapiens; conditions: Homo sapiens, GOTO;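 note: growth inhibition of GOTO cells, read out by a cell viability assay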
Description: SANGER: Inhibition of human GOTO cell growth in a cell viability assay.

C2BBe1 = assay type: functional, cell-based, Homo sapiens; conditions: Homo sapiens, C2BBe1;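 note: growth inhibition of C2BBe1 cells, read out through a viability assay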
Description: SANGER: Inhibition of human C2BBe1 cell growth in a cell viability assay.

VA-ES-BJ = assay type: functional, cell-based, Homo sapiens; conditions: Homo sapiens, VA-ES-BJ;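 note: growth inhibition of the VA-ES-BJ cell line, read out by a cell viability assay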
Description: SANGER: Inhibition of human VA-ES-BJ cell growth in a cell viability assay.

ES1 = assay type: functional, cell-based, Homo sapiens; conditions: Homo sapiens, ES1;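 note: growth inhibition of ES1 cells, read out with a cell viability assay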
Description: SANGER: Inhibition of human ES1 cell growth in a cell viability assay.

LB2518-MEL = assay type: functional, cell-based; conditions: Homo sapiens;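 note: growth inhibition of human LB2518-MEL cells, measured with a cell viability assay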
Description: SANGER: Inhibition of human LB2518-MEL cell growth in a cell viability assay.

ES6 = assay type: functional, cell-based; conditions: Homo sapiens;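 note: growth inhibition of human ES6 cells, read out with a cell viability assay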
Description: SANGER: Inhibition of human ES6 cell growth in a cell viability assay.

DMS-114 = assay type: functional, cell-based, Homo sapiens; conditions: Homo sapiens, DMS-114
GB-1 = assay type: functional, cell-based, Homo sapiens; conditions: Homo sapiens, GB-1;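 note: growth of GB-1 cells judged by a viability assay, IC50 marks the concentration inhibiting growth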
Description: SANGER: Inhibition of human GB-1 cell growth in a cell viability assay.

NCI-H209 = assay type: functional, cell-based, Homo sapiens; conditions: Homo sapiens, NCI-H209;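 note: growth inhibition of human NCI-H209 cells, measured by a cell viability assay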
Description: SANGER: Inhibition of human NCI-H209 cell growth in a cell viability assay.

SCC-15 = assay type: functional, cell-based, Homo sapiens; conditions: Homo sapiens, SCC-15;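 note: growth inhibition of SCC-15 cells, read out with a cell viability assay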
Description: SANGER: Inhibition of human SCC-15 cell growth in a cell viability assay.

A498 = assay type: functional, cell-based, Homo sapiens; conditions: Homo sapiens, A498;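 note: growth inhibition of human A498 cells, read out with a cell viability assay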
Description: SANGER: Inhibition of human A498 cell growth in a cell viability assay.

IA-LM = assay type: functional, cell-based; conditions: Homo sapiens;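 note: cell viability assay measuring growth inhibition of human IA-LM cells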
Description: SANGER: Inhibition of human IA-LM cell growth in a cell viability assay.

HCE-4 = assay type: functional, cell-based; conditions: Homo sapiens;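 note: cell viability assay measuring inhibition of growth in the human HCE-4 cell line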
Description: SANGER: Inhibition of human HCE-4 cell growth in a cell viability assay.

TGBC24TKB = assay type: functional, cell-based; conditions: Homo sapiens;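 note: growth inhibition of human TGBC24TKB cells, read out with a cell viability assay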
Description: SANGER: Inhibition of human TGBC24TKB cell growth in a cell viability assay.

With Nc1ccccc1NC(=O)c1ccc(CNC(=O)OCc2cccnc2)cc1 [ENTINOSTAT] the IC50 (LU-134-A) was 571 nM, the IC50 (KNS-42) was > 5000 nM and the IC50 (SF-126) was 2330 nM. For the same compound, the IC50 (SNB-75) was > 5000 nM, the IC50 (SF-539) was 196 nM and the IC50 (MZ7-mel) was 561 nM. For the same compound, the IC50 (KARPAS-299) was 585 nM, the IC50 (NCI-H1355) was 2120 nM and the IC50 (A101D) was 403 nM. The IC50 (LNCaP-Clone-FGC) was > 5000 nM, the IC50 (KARPAS-45) was 278 nM and the IC50 (ETK-1) was 1790 nM. For the same compound, the IC50 (BB65-RCC) was 3980 nM, the IC50 (COLO-800) was > 5000 nM and the IC50 (GI-1) was 2930 nM. For the same compound, the IC50 (MLMA) was 1880 nM, the IC50 (HCC2157) was 1430 nM and the IC50 (Ramos-2G6-4C10) was 439 nM. It also gave an IC50 (TE-12) of 3520 nM, an IC50 (SF-268) of 3480 nM and an IC50 (NTERA-2-cl-D1) of 201 nM. The IC50 (HOP-62) was 484 nM, the IC50 (MFM-223) was > 5000 nM and the IC50 (Mo) was > 5000 nM. The IC50 (ES8) was 360 nM, the IC50 (HH) was 990 nM and the IC50 (LS-123) was 2350 nM. For the same compound, the IC50 (KS-1) was 881 nM, the IC50 (D-263MG) was > 5000 nM and the IC50 (TGW) was 1080 nM. The IC50 (SH-4) was 1020 nM, the IC50 (CGTH-W-1) was 2420 nM and the IC50 (SK-MEL-1) was > 5000 nM. For the same compound, the IC50 (8-MG-BA) was 1290 nM, the IC50 (LOX IMVI) was 1930 nM and the IC50 (MZ1-PC) was 3620 nM. The IC50 (RPMI-8866) was 1600 nM, the IC50 (GOTO) was 951 nM and the IC50 (C2BBe1) was > 5000 nM. For the same compound, the IC50 (VA-ES-BJ) was > 5000 nM, the IC50 (ES1) was 113 nM and the IC50 (LB2518-MEL) was 933 nM. The IC50 (ES6) was 964 nM, the IC50 (DMS-114) was > 5000 nM and the IC50 (GB-1) was 1940 nM. For the same compound, the IC50 (NCI-H209) was 406 nM.
In the case of CC1=C(/C=C/C(C)=C/C=C/C(C)=C/C(=O)O)C(C)(C)CCC1 [TRETINOIN], the IC50 (LU-134-A) is reported as > 10000 nM, the IC50 (KNS-42) is reported as > 10000 nM and the IC50 (SF-126) is reported as > 10000 nM. The IC50 (SCC-15) was 9350 nM, the IC50 (SNB-75) was > 10000 nM and the IC50 (SF-539) was > 10000 nM. The IC50 (MZ7-mel) was > 10000 nM, the IC50 (KARPAS-299) was > 10000 nM and the IC50 (A498) was > 10000 nM. The IC50 (IA-LM) was > 10000 nM, the IC50 (NCI-H1355) was > 10000 nM and the IC50 (A101D) was > 10000 nM. For the same compound, the IC50 (LNCaP-Clone-FGC) was > 10000 nM, the IC50 (KARPAS-45) was 2600 nM and the IC50 (ETK-1) was > 10000 nM. For the same compound, the IC50 (BB65-RCC) was > 10000 nM, the IC50 (COLO-800) was > 10000 nM and the IC50 (GI-1) was > 10000 nM. The IC50 (MLMA) was > 10000 nM, the IC50 (Ramos-2G6-4C10) was > 10000 nM and the IC50 (TE-12) was > 10000 nM. For the same compound, the IC50 (SF-268) was > 10000 nM, the IC50 (NTERA-2-cl-D1) was > 10000 nM and the IC50 (HOP-62) was > 10000 nM. For the same compound, the IC50 (MFM-223) was > 10000 nM, the IC50 (Mo) was > 10000 nM and the IC50 (ES8) was > 10000 nM. For the same compound, the IC50 (HH) was 196 nM, the IC50 (LS-123) was > 10000 nM and the IC50 (KS-1) was > 10000 nM. For the same compound, the IC50 (D-263MG) was > 10000 nM, the IC50 (SH-4) was > 10000 nM and the IC50 (CGTH-W-1) was > 10000 nM. For the same compound, the IC50 (SK-MEL-1) was > 10000 nM, the IC50 (8-MG-BA) was > 10000 nM and the IC50 (LOX IMVI) was > 10000 nM. The IC50 (MZ1-PC) was > 10000 nM, the IC50 (HCE-4) was > 10000 nM and the IC50 (RPMI-8866) was > 10000 nM. The IC50 (TGBC24TKB) was > 10000 nM, the IC50 (GOTO) was > 10000 nM and the IC50 (C2BBe1) was > 10000 nM. For the same compound, the IC50 (VA-ES-BJ) was > 10000 nM, the IC50 (ES1) was > 10000 nM and the IC50 (LB2518-MEL) was > 10000 nM. The IC50 (ES6) was > 10000 nM, the IC50 (DMS-114) was > 10000 nM and the IC50 (GB-1) was > 10000 nM. The IC50 (NCI-H209) was 2520 nM.
